The text below walks through data of US8945397B2, “Methods of inhibiting cyanobacteria growth by administering gramine derivatives” (priority 2012, dated 2015).

Values after ≈ are worked out from the molar mass of the structure shown.

Assay [1] deals with M. Aeruginosa. The assay is described as follows: Optical absorption assay of M. aeruginosa growth at varying concentrations, 8 days, with LC50 calculation. The format is cell-based, Microcystis aeruginosa. Conditions: for OD600 as % of the corresponding OD600 measurement of the control sample: 8 days; for OD600 of M. aeruginosa after 8 days: start OD600 0.1, control about 2.4; for LC50: Microcystis aeruginosa, 192 h, read-out: Lethal Concentration 50 (LC50). The protocol:
(§1) Different concentrations of 5,6-dichlorogramine were administered to M. aeruginosa cells as indicated. M. aeruginosa cell density measurements were taken every 24 hours. […] During the first 3 days, the M. aeruginosa cell densities for the control sample and the 5,6-dichlorogramine samples were similar. But starting on day 4, there was larger differentiation in M. aeruginosa cell densities between the control samples and the 5,6-dichlorogramine administered samples. […] In contrast, the OD600 of M. aeruginosa after 8 days of exposure to 0.05 mg/L 5,6-dichlorogramine was about 0.9, only about 38% of the corresponding OD600 measurement of the control sample. The OD600 measurement for M. aeruginosa after 8 days of exposure to about 0.2 mg/L 5,6-dichlorogramine was about 0.6, only about 25% of the corresponding OD600 measurement of the control sample. The OD600 measurement for M. aeruginosa after 8 days of exposure to about 0.8 mg/L 5,6-dichlorogramine was about 0.3, only about 13% of the corresponding OD600 measurement of the control sample.
as §1, with “5,6,7-trichlorogramine” for “5,6-dichlorogramine”
LC50 is a common way to describe the median lethal concentration of an administered agent in a medium, such as air or water, needed to kill half of the organism population living within the medium. LC50 is a well-known method of describing the acute toxicity of an administered agent on the target organism population.
(§2) In FIG. 6, the optical density measurement (OD600) of the M. aeruginosa cells on day 8 was plotted against the administered 5,6-dichlorogramine concentration. […] Half of about 2.4 is about 1.2, and according to FIG. 6, the 1.2 optical density measurement corresponds to an approximately 0.03 mg/L 5,6-dichlorogramine concentration. Based on these calculations, the effective amount of 5,6-dichlorogramine to administer to control the growth and spread of M. aeruginosa algae in fresh water may be a 5,6-dichlorogramine concentration ranging between about 0.01 mg/L and about 0.05 mg/L, and may be more specifically about 0.03 mg/L.
as §2, with “7,” for “6,”, “(ODo)” for “(OD600)”, “5,6,7-trichlorogramine” for “5,6-dichlorogramine”

Assay [2] deals with N. closterium algae. The settings on record: Li et al. 2009; cited from earlier work.

As for `CN(C)Cc1c[nH]c2cc(Cl)c(Cl)cc12` [Compound No. 9, 5,6-dichlorogramine], the figures for the “OD600 as % of the corresponding OD600 measurement of the control sample” value in assay [1] (0.05 mg/L), in assay [1] (about 0.2 mg/L) and in assay [1] (about 0.8 mg/L) were “about 38%”, “about 25%” and “about 13%”, respectively. In addition, the entries for the “OD600 of M. aeruginosa after 8 days” value in assay [1] (0.05 mg/L), in assay [1] (about 0.2 mg/L) and in assay [1] (about 0.8 mg/L) were “about 0.9”, “about 0.6” and “about 0.3”, respectively. In addition, the LC50 in assay [1] is roughly 0.03 µg/mL (≈ 0.123 µM). Besides, the “inhibition of growth of saltwater N. closterium algae” value in assay [2] is reported as “inhibit the growth”.

Turning to `CN(C)Cc1c[nH]c2c(Cl)c(Cl)c(Cl)cc12` [Compound No. 12, 5,6,7-trichlorogramine], the “OD600 as % of the corresponding OD600 measurement of the control sample” value is reported as “about 38%” in assay [1] (0.05 mg/L), “about 25%” in assay [1] (about 0.2 mg/L) and “about 13%” in assay [1] (about 0.8 mg/L). Also, the figures for the “OD600 of M. aeruginosa after 8 days” value in assay [1] (0.05 mg/L), in assay [1] (about 0.2 mg/L) and in assay [1] (about 0.8 mg/L) were “about 0.9”, “about 0.6” and “about 0.3”, respectively. Besides, the LC50 in assay [1] was roughly 0.03 µg/mL (≈ 0.108 µM).
